Test results as given in patent publication US6555523B1, “Use of cirsiliol and derivatives to treat infections” (priority 1999, dated 2003).
Values after ≈ are worked out from the molar mass of the structure shown. Values joined by “and” are separate entries in the source; they are usually repeats but may differ in a detail not shown here. Identical values can stand only once. Marks after values point to notes of the source that are not given here.

How the values were obtained:
[1] = test system: HIV ROJO; assay: Anti-HIV assay in fresh human PBL (RT activity), Protocol D1; settings: Human immunodeficiency virus 1, PBMC
[2] = in vitro; settings: human, TC50
[3] = test system: MDBK cells; assay: Cytotoxicity in MDBK cultures (BVDV test); settings: at 10.000 μg/mL, no toxicity at lower concentrations
Method: As a comparison, similar tests were conducted using ribavirin.

[4] = test system: Bovine Viral Diarrhea Virus; assay: Plaque formation by Bovine Viral Diarrhea Virus in MDBK cultures; assay type: cell-based, bovine viral diarrhea virus (BVDV); settings: for % Reduction: plaques; for Number of plaques: Tests 1-3, control 68
Method: HCV in vitro assays. No well-accepted model exists for HCV and new compounds for use in the treatment of HCV are frequently tested for activity against bovine viral diarrhea virus (BVDV), a virus which is related to HCV.
A representative compound according to the present invention, naringin (i.e., 7-neohesperidoside, 5, 4′ dihydroxyflavanone) was tested for anti-BVDV activity in MDBK cells.

[5] = Drug solubility observed in the BVDV test; settings: BVDV test in MDBK cultures; naringin solvent EtOH
[6] = test system: rhinovirus 14; assay: Anti-picornaviral virus yield assay, Protocol B; assay type: cell-based, Rhinovirus type 14; settings: Enterovirus
[7] = test system: Influenza A; assay: CPE-inhibition (microscopic) assay, Protocol A2; assay type: cell-based; settings: Influenza A virus, MDCK
[8] = in vitro; settings: dog
[9] = Drug cytotoxicity, Protocol A2 (microscopic); settings: human, Hep2 cell monolayers
[10] = test system: T, gondii RH; assay: In-vitro anti Toxoplasma gondii activity in HFF, Protocol C; assay type: cell-based
Method: Protocol C—In-vitro testing of anti Toxoplasma gondii activity of Cirsiliol and Naringin. The compounds were tested in an in vitro cell culture assay utilizing human fibroblasts (HFF line) as the host cell. RH strain Toxoplasma gondii that has been transfected with β-galactosidase as a marker for quantitative detection of parasite number (RH Bgal), was used as the challenge organism. The compounds ere dissolved, and then diluted in cell culture medium at least 100 fold for the assays. Controls containing the maximum concentration of solvent used in the assay were run with each test. The active drugs were added and the monolayers were infected immediately at the beginning of each test. Extracellular T. gondii were removed by rinsing the monolayer, and infected host cells remained in contact with the cells for the entire test period. Each test was terminated when at least four parasite doublings could be visually identified in the control monolayers, and parasite numbers were quantitated by standard colorimetric assay for bet galactosidase activity with optical density at 550 nm as the readout. The optical density in this assay has a direct and linear correlation with parasite numbers over a 5-log parasite concentration. Toxicity in the host cells was determined by inspection for cytopathic effects and visual evaluation of cell growth.

[11] = test system: parainfluenza HA-1; assay: CPE-inhibition (microscopic) assay, Protocol A2; assay type: cell-based, parainfluenza virus; settings: HEp-2, cell Hep2 (cell blank for 3-(4′-bromophenyl) coumarin)
[12] = test system: toxoplasma; assay: Inhibition of parasite levels in vivo, mice infected with 20 toxoplasma cysts; parameters: species or system Mice (C57BL/6)
From the text: Inhibition of parasite levels in vivo. Mice (C57BL/6) were infected with 20 toxoplasma cysts and then treated with cirsiliol or control vehicle (0.1% DMSO). After the treatment, the level of toxoplasma cysts in the brain was reduced (about 1.5-2 fold) by the cirsiliol treatment compared to the control.

[13] = test system: HIV Merck 1022-48; assay: Anti-HIV assay in fresh human PBL (RT activity), Protocol D1; assay type: cell-based; settings: Human immunodeficiency virus 1, PBMC
[14] = test system: HIV Merck 52-52; assay: as above; settings: Human immunodeficiency virus 1, PBMC
[15] = Drug cytotoxicity by XTT in monocyte-macrophages, Protocol D2; assay type: cell-based; settings: human; macrophage; Protocol D2; read-out: TC50
Method: Protocol D2—Assay in fresh human monocyte-macrophages. […] The cells are placed in a 96-well microtiter plate at 37° C. for 2 hours. Non-adherent cells are removed by vigorously washing six times. […] The cultures are carefully monitored for confluency during this incubation period. Infection of the cells is performed with monocytotropic HIV-1 isolates. […] Monocytemacrophage monolayers are infected at a multiplicity of infection (“MOI”) of 0.1.
(§1) At 2 days post-infection, the medium is decanted and the cultures washed twice with complete medium in order to remove excess virus. Fresh medium alone or medium containing the appropriate concentration of drug is added and incubation continued for an additional five days. XTT staining for cytotoxicity and HIV p24 ELISA assays for production of p24 core antigen are performed on Day 7 post infection. This is performed according the ELISA kit assay manufacturers recommendations. Control curves are generated in each assay to accurately quantitate the amount of capsid protein in each sample. Data is obtained by spectrophotometric analysis at 450 nm using a Molecular Devices Vmax plate reader. P24 concentrations are calculated form the optical density values by use of the Molecular Device software package Soft Max.

[16] = test system: HIV clade A UG/93/037; assay: Anti-HIV assay in fresh human PBL (RT activity), Protocol D1; settings: Human immunodeficiency virus 1, PBMC
[17] = test system: HIV Merck 1064-52; assay: as above; settings: Human immunodeficiency virus 1, PBMC
[18] = test system: HIV Ba-L; assay: Anti-HIV assay in fresh human monocyte-macrophages (p24 ELISA), Protocol D2; assay type: cell-based; settings: Human immunodeficiency virus 1, BAL, Macrophage, Protocol D2
Method: Protocol D2—Assay in fresh human monocyte-macrophages. […] The cells are placed in a 96-well microtiter plate at 37° C. for 2 hours. Non-adherent cells are removed by vigorously washing six times. […] The cultures are carefully monitored for confluency during this incubation period. Infection of the cells is performed with monocytotropic HIV-1 isolates. High titer pools of each of these viruses are harvested from infected cultures of peripheral blood adherent cells and frozen in 1.0 ml aliquots at −80° C. Monocytemacrophage monolayers are infected at a multiplicity of infection (“MOI”) of 0.1.
as §1
Most of the values were based on average values that were obtained from duplicate or triplicate assay wells.

[19] = test system: HIV clade F BR/92/021; assay: Anti-HIV assay in fresh human PBL (RT activity), Protocol D1; settings: Human immunodeficiency virus 1, PBMC
[20] = test system: HIV Merck 1002-60; assay: as above; settings: Human immunodeficiency virus 1, PBMC
[21] = test system: HIV Merck 1026-60; assay: as above; settings: Human immunodeficiency virus 1, PBMC
[22] = test system: HIV clade B BR/92/014; assay: as above; settings: Human immunodeficiency virus 1, PBMC
[23] = test system: HIV clade E THA/93/073; assay: as above; settings: Human immunodeficiency virus 1, PBMC
[24] = test system: HIV Merck 144-44; assay: as above; settings: Human immunodeficiency virus 1, PBMC
[25] = Drug cytotoxicity by XTT in PBL, Protocol D1; settings: human, TC50, PBMC, printed on each HIV isolate line

## O=c1cc(-c2ccccc2)oc2ccccc12 [Flavone, flavone]
[1]
  IC50: 86.6 µM
[2]
  CC50: 173 µM

## NC(=O)c1ncn([C@@H]2O[C@H](CO)[C@@H](O)[C@H]2O)n1 [Ribavirin, ribavirin, reference compound]
[3]
  toxicity to the cells: *Partial toxicity to the cells was observed with no toxicity at lower concentrations
[4]; BVDV plaque formation in MDBK, table footnote, unit from the table's concentration head
  ID50: 1.24 µg/mL (≈ 5.08 µM)
[4]; ribavirin 0.320 μg/mL
  % Reduction: 14.10%
  Number of plaques: 55 and 62 and 59
[4]; ribavirin 1.000 μg/mL
  % Reduction: 38.99%
  Number of plaques: 36 and 42 and 47
[4]; ribavirin 3.200 μg/mL
  % Reduction: 93.65%
  Number of plaques: 4 and 5
[4]; ribavirin 10.000 μg/mL, partial toxicity to the cells
  % Reduction: 100.00* %
[4]; ribavirin 10.000 μg/mL
  Number of plaques: 0
[5]
  drug solubility observation: Comment: Positive control drug. Drug was soluble in medium.

## O=c1cc(-c2ccccc2)oc2ccc(O)cc12 [6-Hydroxyflavone, 6-hydroxyflavone]
[1]
  IC50: 41.8 µM
[2]
  CC50: 53.9 µM

## COc1cc2oc(-c3ccc(O)c(O)c3)cc(=O)c2c(O)c1OC [Cirsiliol, 6,7′-dimethoxy-5,3′,4′-trihydroxyflavone]
[6]
  IC50: ~3 µM
[7]
  IC50: > 200 µM
[8]
  CC50: < 6.3 µM
[9]
  CC50: 12.5 µM
[10]
  IC50: ~2 µM
[11]
  IC50: 7.8 µM
[12]; 8 mice, 21-day post infection follow up, 4 of 8 vehicle control mice died by 15 days
  survival of toxoplasmosis infection: all 8 cirsiliol treated mice survived
[12]; C57BL/6 mice, 20 toxoplasma cysts, control vehicle 0.1% DMSO
  level of toxoplasma cysts in the brain reduced compared to the control: 1.5-2 fold

## COc1ccc(-c2cc(=O)c3c(OC)c(OC)c(OC)c(OC)c3o2)cc1 [Tangeretin, tangeretin]
[13]
  IC50: 20.8 µM
[14]
  IC50: 18.2 µM
[15]
  CC50 at 7 days: > 100 µM
[16]
  IC50: 19.4 µM
[17]
  IC50: 15 µM
[18]
  IC50: > 100 µM
[19]
  IC50: 15.7 µM
[20]
  IC50: 9.7 µM
[21]
  IC50: 19.8 µM
[22]
  IC50: 12.3 µM
[23]
  IC50: 15.3 µM
[24]
  IC50: 14.7 µM

## O=c1oc2ccccc2cc1-c1ccc(Br)cc1 [3-(4′-Bromophenyl) coumarin, 3-(4′-bromophenyl) coumarin]
[9]
  CC50: 100 µM
[11]
  IC50: 6.3 µM

## COc1ccc([C@@H]2CC(=O)c3c(O)cc(O)cc3O2)cc1O [Hesperetin, hesperetin]
[1]
  IC50: 134 µM
[25]
  CC50: 190 µM
